Results on four molecules are retold here after article PMC4712559, “Isolation and characterization of Bradykinin potentiating peptides from Agkistrodon bilineatus venom” (Proteome Science, 2016).

Where a SMILES comes first, the peptide text is derived from it.

This assay concerns the target T1, Angiotensin converting enzyme from rabbit lung (Oryctolagus cuniculus, UniProt P12822).
T1 construct: Angiotensin converting enzyme from rabbit lung (A6778- 0.25 UN), was obtained from Sigma; purchased Sigma A6778; host or cells: rabbit lung tissue
T1 sequence (P12822 34-1310): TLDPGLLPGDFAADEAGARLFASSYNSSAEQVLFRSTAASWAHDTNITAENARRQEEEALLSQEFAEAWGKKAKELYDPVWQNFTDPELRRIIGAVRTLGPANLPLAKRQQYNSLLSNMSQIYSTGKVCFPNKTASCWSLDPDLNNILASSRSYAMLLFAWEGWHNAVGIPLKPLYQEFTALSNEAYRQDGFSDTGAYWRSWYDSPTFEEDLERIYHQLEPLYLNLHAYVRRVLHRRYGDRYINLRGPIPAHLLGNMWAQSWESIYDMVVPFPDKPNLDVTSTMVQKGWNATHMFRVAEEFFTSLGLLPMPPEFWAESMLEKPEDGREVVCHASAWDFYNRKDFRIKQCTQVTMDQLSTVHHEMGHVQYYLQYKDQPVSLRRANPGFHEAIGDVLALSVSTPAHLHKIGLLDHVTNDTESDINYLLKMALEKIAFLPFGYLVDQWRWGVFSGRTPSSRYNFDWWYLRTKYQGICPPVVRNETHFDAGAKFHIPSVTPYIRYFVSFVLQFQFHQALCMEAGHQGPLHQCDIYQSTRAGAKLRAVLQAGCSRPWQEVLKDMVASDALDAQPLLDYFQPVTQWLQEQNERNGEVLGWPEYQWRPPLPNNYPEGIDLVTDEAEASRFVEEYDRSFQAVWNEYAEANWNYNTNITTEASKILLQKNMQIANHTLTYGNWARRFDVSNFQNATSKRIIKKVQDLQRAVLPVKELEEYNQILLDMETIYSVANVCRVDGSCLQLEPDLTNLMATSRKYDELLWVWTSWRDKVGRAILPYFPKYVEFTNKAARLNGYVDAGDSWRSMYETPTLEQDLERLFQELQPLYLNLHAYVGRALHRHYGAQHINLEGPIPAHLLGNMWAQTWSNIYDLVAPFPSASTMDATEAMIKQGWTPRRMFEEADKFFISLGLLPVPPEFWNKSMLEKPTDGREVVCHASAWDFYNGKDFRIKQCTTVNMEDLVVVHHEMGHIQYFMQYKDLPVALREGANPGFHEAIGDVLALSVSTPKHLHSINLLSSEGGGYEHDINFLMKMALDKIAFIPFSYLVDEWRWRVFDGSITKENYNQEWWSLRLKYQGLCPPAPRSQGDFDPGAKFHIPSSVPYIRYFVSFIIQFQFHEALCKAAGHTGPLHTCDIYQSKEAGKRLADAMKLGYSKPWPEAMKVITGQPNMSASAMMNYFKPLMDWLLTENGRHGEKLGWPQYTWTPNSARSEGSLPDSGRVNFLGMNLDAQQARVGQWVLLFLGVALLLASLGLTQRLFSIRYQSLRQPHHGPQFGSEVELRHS
Description: ACE inhibition by synthetic BPPs, fluorescence energy transfer assay with Abz-Phe-Arg-Lys(Dnp)-Pro-OH. In kind it is biochemical. The settings on record: for ACE inhibition / IC 50, in words: qualitative comparison of the four synthesized peptides; for IC50: rabbit lung ACE, FRET substrate Abz-Phe-Arg-Lys(Dnp)-Pro-OH, Tris/NaCl/ZnCl2 buffer, pH 7.0, 10 min incubation at room temperature, λex 320 nm, λem 420 nm, 5 min, six serial dilutions 0.500-0.002 mM, 5 μl of dilution in assay, repeated five times. How it is done: The snake venom of Agkistrodon bilineatus bilineatus, was obtained from Venom Supplies, Australia, and was placed at -20° till further use. The venom was collected from the snakes bred in the farms of Venom Supplies, Australia. All the solvents used were of HPLC grade and were obtained from Merck. The substrate Abz-Phe-Arg-Lys (Dnp)-Pro-OH for angiotensin converting enzyme was obtained from BACHEM. Angiotensin converting enzyme from rabbit lung (A6778- 0.25 UN), was obtained from Sigma. The synthesized peptides ZLWPRPQIPP, ZQWAQGRAPHPP, ZSAPGNEAIPP, ZNWPHPQIPP were purchased from China Peptide company, Shanghai, China. The peptides were 95 % pure, and were kept at -20° till use. The N-terminus of these synthetic peptide is pyroglutame (represented by Z), while the C-terminus is an amino acid with free carboxylic group.
ACE activities in the presence of venom peptides were determined by a fluorescence energy transfer assay using Abz-Phe-Arg-Lys (Dnp)-Pro-OH as a substrate. 1 mg of the substrate was weighed and dissolved in 1 ml DMSO. The exact concentration of the substrate was determined by taking four different volumes of the substrate stock solution, and constructing a standard curve spectrophometrically at 365 nm, using the molar extinction coefficient of the Dnp group ([…] = 17,300 M^−1 cm^−1), according to the Beer’s Lambert Law (A = εDnp x l x c). A stock solution of the enzyme was prepared by suspending 0.25 UN of ACE in 250 μl of the assay buffer (12.10 g Tris-base, 2.92 g NaCl and 1.36 mg ZnCl2 in 1 l of deionised water, pH to 7.0 adjusted with HCl).
In order to determine the IC 50 values of the synthesized peptides, a stock solution (10 mM) of each was prepared in the assay buffer. From the stock solutions, six serial dilutions were prepared for each peptide. The concentrations of the six dilutions were as follows, 0.500 mM, 0.167 mM, 0.056 mM, 0.019 mM, 0.006 mM and 0.002 mM respectively. In the final assay, 85 μl of the assay buffer, 2 μl of the enzyme stock solution, and 5 μl of the dilute peptide solution were added. The mixture was incubated for 10 min at room temperature. The reaction was started by adding 10 μl of the working solution of the substrate (20 μl of the stock +280 μl of the assay buffer). The same procedure was adopted using 5 μl of venom fractions instead of the synthetic peptides. Fluorescence measurements were made at λex = 320 nm and at λem = 420 nm, for 5 min each. These experiments were repeated five times to ensure accuracy of the results.

Consider `C[C@H](NC(=O)[C@H](Cc1c[nH]c2ccccc12)NC(=O)[C@H](CCC(N)=O)NC(=O)[C@@H]1CCC(=O)N1)C(=O)N[C@@H](CCC(N)=O)C(=O)NCC(=O)N[C@@H](CCCNC(=N)N)C(=O)N[C@@H](C)C(=O)N1CCC[C@H]1C(=O)N[C@@H](Cc1c[nH]cn1)C(=O)N1CCC[C@H]1C(=O)N1CCC[C@H]1C(=O)O` [Inhibitor 2 (P7)] (HELM PEPTIDE1{[Glp].Q.W.A.Q.G.R.A.P.H.P.P}$$$$V2.0), for which the concentration for half-maximal inhibition (IC50) was found to be 3630 nM. In addition, for the setting “listed as ZQWAQGRAPHPP”, the “ACE inhibition / IC 50, in words” value is “low IC 50 value”. Where the note is “listed as peptide 7”, the “ACE inhibition / IC 50, in words” value is listed as “low IC 50 values”.
Consider `CC[C@H](C)[C@H](NC(=O)[C@H](C)NC(=O)[C@H](CCC(=O)O)NC(=O)[C@H](CC(N)=O)NC(=O)CNC(=O)[C@@H]1CCCN1C(=O)[C@H](C)NC(=O)[C@H](CO)NC(=O)[C@@H]1CCC(=O)N1)C(=O)N1CCC[C@H]1C(=O)N1CCC[C@H]1C(=O)O` [Inhibitor 3 (P5)] (HELM PEPTIDE1{[Glp].S.A.P.G.N.E.A.I.P.P}$$$$V2.0), for which the “ACE inhibition / IC 50, in words” value was “much higher value” and it took 30000 nM to reach half-maximal inhibition (IC50).
For the molecule `CC[C@H](C)[C@H](NC(=O)[C@H](CCC(N)=O)NC(=O)[C@@H]1CCCN1C(=O)[C@H](CCCNC(=N)N)NC(=O)[C@@H]1CCCN1C(=O)[C@H](Cc1c[nH]c2ccccc12)NC(=O)[C@H](CC(C)C)NC(=O)[C@@H]1CCC(=O)N1)C(=O)N1CCC[C@H]1C(=O)N1CCC[C@H]1C(=O)O` [Inhibitor 1 (P6)] (HELM PEPTIDE1{[Glp].L.W.P.R.P.Q.I.P.P}$$$$V2.0), the IC50 is 640 nM. In addition, the “ACE inhibition / IC 50, in words” value (listed as ZLWPRPQXPP) is listed as “strongest inhibitors”. The “ACE inhibition / IC 50, in words” value (listed as peptide 6) is given as “low IC 50 values”.
Consider `CC[C@H](C)[C@H](NC(=O)[C@H](CCC(N)=O)NC(=O)[C@@H]1CCCN1C(=O)[C@H](Cc1c[nH]cn1)NC(=O)[C@@H]1CCCN1C(=O)[C@H](Cc1c[nH]c2ccccc12)NC(=O)[C@H](CC(N)=O)NC(=O)[C@@H]1CCC(=O)N1)C(=O)N1CCC[C@H]1C(=O)N1CCC[C@H]1C(=O)O` [Inhibitor 4 (P3)] (HELM PEPTIDE1{[Glp].N.W.P.H.P.Q.I.P.P}$$$$V2.0), for which the concentration for half-maximal inhibition (IC50) came out at 760 nM. The “ACE inhibition / IC 50, in words” value (listed as ZNWPHPQXPP) was “strongest inhibitors”. The “ACE inhibition / IC 50, in words” value (listed as peptide 5) is reported as “low IC 50 values”.
